Entries after “also recorded” stand apart in the source; their conditions may differ.
Legend:
[1] = Cell viability (MTT assay) in LPS-treated RAW 264.7 macrophages; assay type: cell-based; details: mouse, RAW 264.7 macrophages treated with LPS, compound 100 μM and LPS 1 μg/mL, pretreated 1 h, incubated 24 h, read-out: Cell Viabilities (%)
Method: [table] Cell viability and nitrite levels were measured using MTT and Griess reaction assays, respectively.

[2] = tested on: LPS-stimulated NO production in RAW 264.7 macrophages; experiment: LPS-induced NO production in RAW 264.7 macrophages (Griess reaction); assay type: cell-based; details: for IC50 / inhibition at 100 µM: Mus musculus, RAW264.7, RAW 264.7; for IC50: LPS 1 μg/mL, 24 h; for inhibition at 100 µM: compound 100 μM and LPS 1 μg/mL, pretreated 1 h, incubated 24 h, read-out: Inhibition Rate (%) NO
Method: (§1) All the isolates 1–9 obtained from the leaves of A. koraiensis were evaluated for their inhibitory effects of LPS-stimulated NO and PGE2 production in RAW 264.7 macrophages at non-toxic concentrations (Table 3).
(§2) Figure 5 Inhibitory effects of compound 7 on LPS-stimulated NO (A) and PGE2 productions (B) in RAW 264.7 macrophages. Cells were pretreated with different concentrations (25, 50, or 100 μM) of compound 7 for 1 h, then with LPS (1 μg/mL), and then were incubated for 24 h. l-N^6-(1-Iminoethyl)lysine (l-NIL, 10 μM) and N-[2-(cyclohexyloxy)-4-nitrophenyl]-methanesulfonamide (NS-398, 10 μM) were used as positive NO and PGE2 production inhibitors, respectively.
Cell viability and nitrite levels were measured using MTT and Griess reaction assays, respectively.

[3] = tested on: LPS-stimulated PGE2 production in RAW 264.7 macrophages; experiment: LPS-induced PGE2 production in RAW 264.7 macrophages (EIA kit); assay type: cell-based; details: for IC50 / inhibition at 100 µM: Mus musculus, RAW264.7, RAW 264.7; for IC50: LPS 1 μg/mL, 24 h; for inhibition at 100 µM: compound 100 μM and LPS 1 μg/mL, pretreated 1 h, incubated 24 h, read-out: Inhibition Rate (%) PGE2
Method: as §1, §2
PGE2 levels in cell culture mediums were determined using EIA kits (R&D Systems, MN) as reported in the previous paper.

[4] = LPS-stimulated RAW 264.7 cells, non-toxic concentrations

| SMILES | IC50 [2] | IC50 [3] | melting point | viability at 24 h, 100 μM [1] | inhibition at 100 µM [2] | inhibition at 100 µM [3] | Inhibitory effect on NO production (in words) [2, 4] | Inhibitory effect on PGE2 production (in words) [3, 4] |
| --- | --- | --- | --- | --- | --- | --- | --- | --- |
| O=C(/C=C/c1ccc(O)c(O)c1)O[C@@H]1[C@H](O)C[C@@](O)(C(=O)O)C[C@H]1OC(=O)/C=C/c1ccc(O)c(O)c1 [Compound 9, 4,5-dicaffeoylquinic acid] | > 100 µM | > 100 µM | – | 100% | 4.64% | 20.4% | – | – |
| CC1=CC[C@@H](O)[C@@]2(C)[C@H]1[C@H](O[C@@H]1O[C@H](CO)[C@@H](O)[C@H](O)[C@H]1O)[C@H](C(C)C)C[C@@H]2O [Compound 2, (1R,5S,6R,7S,9S,10R)-1,6,9-trihydroxy-eudesm-3-ene-6-O-β-D-glucopyranoside] | > 100 µM | > 100 µM | – | 105% | 3.2% | 0% | – | – |
| CC1=CCC(OC2OC(CO)C(O)C(O)C2O)C2(C)C(O)CC(C(C)(C)O)C(OC3OC(CO)C(O)C(O)C3O)C12 [Compound 3, (1R,5S,6S,7R,9S,10S)-1,6,9,11-tetrahydroxy-eudesm-3-ene-1,6-di-O-β-D-glucopyranoside] | > 100 µM | > 100 µM | 230 °C | 94% | 4.66% | 10.5% | – | – |
| O=C(/C=C/c1ccc(O)c(O)c1)O[C@@H]1C[C@](O)(C(=O)O)C[C@@H](OC(=O)/C=C/c2ccc(O)c(O)c2)[C@H]1O [Compound 8, 3,5-dicaffeoylquinic acid] | > 100 µM | > 100 µM | – | 93.4% | 6.25% | 1.27% | – | – |
| CC1=CC[C@@H](O)[C@@]2(C)[C@H]1[C@H](O[C@@H]1O[C@H](CO)[C@@H](O)[C@H](O)[C@H]1O)[C@H](C(C)(C)O)C[C@@H]2O [Compound 4, (1R,5S,6S,7R,9S,10R)-1,6,9,11-tetrahydroxy-eudesm-3-ene-6-O-β-D-glucopyranoside] | > 100 µM | > 100 µM | – | 102% | 1.31% | 6.15% | – | – |
| CC1=CCC(OC2OC(CO)C(O)C(O)C2O)C2(C)C(O)CC(C(C)C)C(OC3OC(CO)C(O)C(O)C3O)C12 [Compound 1, (1R,5S,6R,7S,9S,10S)-1,6,9-trihydroxy-eudesm-3-ene-1,6-di-O-β-D-glucopyranoside] | > 100 µM | > 100 µM | 167.2 °C | 102% | 1.79% | 0% | – | – |

Further lines, with some results ahead:

| IC50 [2] | IC50 [3] | melting point | SMILES | viability at 24 h, 100 μM [1] | inhibition at 100 µM [2] | inhibition at 100 µM [3] | Inhibitory effect on NO production (in words) [2, 4] | Inhibitory effect on PGE2 production (in words) [3, 4] |
| --- | --- | --- | --- | --- | --- | --- | --- | --- |
| > 100 µM | > 100 µM | – | CC1=CC[C@@H](O)[C@]2(C)[C@@H](OC(=O)/C=C/c3ccc(O)cc3)C[C@@H](C(C)C)[C@@H](O[C@@H]3O[C@H](CO)[C@@H](O)[C@H](O)[C@H]3O)[C@@H]12 [Compound 5, (1R,5S,6R,7S,9S,10R)-9-O-(E-p-coumaroyl)-1,6,9-trihydroxy-eudesm-3-ene-6-O-β-D-glucopyranoside] | 104% | 8.39% | 0% | – | – |
| 95.7 µM | > 100 µM | – | COc1cc(/C=C/C(=O)O[C@H]2C[C@@H](C(C)C)[C@@H](O[C@@H]3O[C@H](CO)[C@@H](O)[C@H](O)[C@H]3O)[C@H]3C(C)=CC[C@@H](O)[C@]23C)ccc1O [Compound 7, (1R,5S,6R,7S,9S,10R)-9-O-(E-feruloyl)-1,6,9-trihydroxy-eudesm-3-ene-6-O-β-D-glucopyranoside] | 89.3% | 53.1% | 41.3% | weak inhibitory effects; also recorded: weak inhibitory activities | weak inhibitory effects; also recorded: weak inhibitory activities |
| > 100 µM | > 100 µM | – | CC1=CC[C@@H](O)[C@]2(C)[C@@H](OC(=O)/C=C\c3ccc(O)cc3)C[C@@H](C(C)C)[C@@H](O[C@@H]3O[C@H](CO)[C@@H](O)[C@H](O)[C@H]3O)[C@@H]12 [Compound 6, (1R,5S,6R,7S,9S,10R)-9-O-(Z-p-coumaroyl)-1,6,9-trihydroxy-eudesm-3-ene-6-O-β-D-glucopyranoside] | 108% | 7.01% | 2.16% | – | – |
